In data set [1] the test system is human lung cancer xenografts (A-549). Put plainly: Experiment 4: suppression of lung cancer (A-549) xenografts with cisplatin and 3′-deoxyadenosine. It is filed as in vivo, BALB/c nude mouse. The method, then:
(§1) Human leukemia cells HL60, human gastric cancer cell line SGC-7901, human breast cancer cells MCF-7, human colon cancer cells HT-29, human lung cancer cells A-549, and human hepatoma cells Huh-7 were routinely cultured in vitro and digested and centrifuged to prepare cell suspensions at a concentration of about 1×10^7 cells/mL, respectively, which were inoculated subcutaneously in the right armpits of the mice at 0.2 mL per mouse.
The inoculated well-grown subcutaneously xenografted tumors were removed and cut into tumor tissue blocks with a size of about 2×2×2 mm for later use. After being anesthetized, the mice were placed in the left lateral decubitus position, the tumor tissue blocks were put into the armpits of the mice, the skin was sutured and disinfected, and then the mice were put back into the cages and fed normally. The mice were grouped after the tumors grew to have a diameter of about 7 to 8 mm. Generally, after being grouped, the mice were administered by gavage with a drug or with a blank solution (solvent: 0.9% (g/mL) sodium chloride injection) for continuous 14 days, once per day, administrated at a volume of 20 mL/kg. Special situations will be described separately in corresponding examples. The general symptoms of the animals were observed before and after the administration. The longer diameter (a) and shorter diameter (b) of each of the solid tumors were measured twice per week after the first administration, the tumor volume was calculated according to the formula: volume (V)=½×a×b^2, and the animals were weighed. The drug was discontinued after administration for 14 days. On the 7th day after stopping the administration, the animals were weighed and then were sacrificed by cervical dislocation, and the solid tumors were removed and weighed. The data obtained were analyzed by SPSS statistical analysis software.
Formula for Evaluation of the Therapeutic Efficacy: Tumor-growth inhibition rate=(average tumor weight in solvent control group−average tumor weight in administered control group)/average tumor weight in solvent control group×100%.
On the 14th day after inoculation of the mice with lung cancer A-549 cells, xenografted tumor models were successful, and then treated with drugs. Refer to FIG. 4 for experimental results.

In data set [2] the test system is human breast cancer xenografts (MCF-7). Briefly: Experiment 1: suppression of breast cancer (MCF-7) xenografts with capecitabine and 3′-deoxyadenosine. The settings on record: capecitabine 400 mg/Kg/day. It is filed as in vivo, BALB/c nude mouse. The method, then:
as §1
(§2) The inoculated well-grown subcutaneously xenografted tumors were removed and cut into tumor tissue blocks with a size of about 2×2×2 mm for later use. After being anesthetized, the mice were placed in the left lateral decubitus position, the tumor tissue blocks were put into the armpits of the mice, the skin was sutured and disinfected, and then the mice were put back into the cages and fed normally. The mice were grouped after the tumors grew to have a diameter of about 7 to 8 mm. […] The longer diameter (a) and shorter diameter (b) of each of the solid tumors were measured twice per week after the first administration, the tumor volume was calculated according to the formula: volume (V)=½×a×b^2, and the animals were weighed. […] The data obtained were analyzed by SPSS statistical analysis software. […]

Data set [3] relates to human gastric cancer xenografts (SGC-7901). Briefly: Experiment 6: suppression of gastric cancer (SGC-7901) xenografts with capecitabine and 3′-deoxyadenosine. It is filed as in vivo, BALB/c nude mouse. The settings on record: capecitabine 400 mg/Kg, 27th day.
Source text: (§3) The inoculated well-grown subcutaneously xenografted tumors were removed and cut into tumor tissue blocks with a size of about 2×2×2 mm for later use. After being anesthetized, the mice were placed in the left lateral decubitus position, the tumor tissue blocks were put into the armpits of the mice, the skin was sutured and disinfected, and then the mice were put back into the cages and fed normally. The mice were grouped after the tumors grew to have a diameter of about 7 to 8 mm. […] The general symptoms of the animals were observed before and after the administration. The longer diameter (a) and shorter diameter (b) of each of the solid tumors were measured twice per week after the first administration, the tumor volume was calculated according to the formula: volume (V)=½×a×b^2, and the animals were weighed. The drug was discontinued after administration for 14 days. On the 7th day after stopping the administration, the animals were weighed and then were sacrificed by cervical dislocation, and the solid tumors were removed and weighed. The data obtained were analyzed by SPSS statistical analysis software.
Data set [4] deals with human colon cancer xenografts (HT-29). Briefly: Experiment 7: suppression of colon cancer (HT-29) xenografts with capecitabine and 3′-deoxyadenosine. In kind it is in vivo, BALB/c nude mouse. The settings on record: capecitabine 400 mg/Kg, 31st day.
Source text: as §3
Data set [5] has as its system human gastric cancer (SGC 7901). Put plainly: Experiment 9: suppression of gastric cancer (SGC 7901) xenografts with 5-fluorouracil and 3′-deoxyadenosine. It is filed as in vivo, BALB/c nude mouse. As to conditions: 5-fluorouracil 6 mg/kg, intravenous, 28th day.
Source text: as §3
Each group was administered with a drug once daily (volume 0.2 mL, intravenously) and measured twice per week.
For data set [6], the system named is MCF-7 (human breast cancer). Briefly: CellTiter-Glo luminescent cell viability assay, human breast cancer cells. In kind it is cell-based. As to conditions: MCF7, MCF-7, 48 hours, drug used alone. The method, then: The above tumor cell line derived from ATCC was cultured in an incubator with 5% CO2 at 37° C.
(4). The culture plate was cultured overnight in an incubator with 5% CO2 and 100% relative humidity at 37° C.

In data set [7] the test system is hepatoma cell line Huh-7, and breast cancer cell lines T47D and MCF-7. Put plainly: Previous work: in vitro cultured human solid tumor cells treated with 3′-deoxyadenosine alone. It is filed as cell-based. As to conditions: Huh-7, T47D and MCF-7, inventors' previous work. The source says: However, its effect was still not satisfactory.
Data set [8] concerns Huh-7 (human hepatoma). Put plainly: CellTiter-Glo luminescent cell viability assay, human hepatoma cells. The settings on record: Huh-7, 48 h.
Procedure: The above tumor cell line derived from ATCC was cultured in an incubator with 5% CO2 at 37° C. The cell line was subcultured twice per week by trypsinization. Cells in the logarithmic growth phase were used for plating.
The concentration of the cells was adjusted to 2×10^4 cells/ml (about 2.0×10^3 cells/well).
(3) 100 μl of a cell suspension was added to each well in the culture plate, and a cell-free culture solution was added to the blank control wells.
Dosing: 5 μl of the compound working solution (20×) was taken and added to the cell culture plate. 5 μl of a mixed solution of DMSO-cell culture solution was added to the solvent control and the blank control.
The 96-well culture plate was put back to the incubator for culture for 48 hours.
The following steps were performed according to the instructions of the Promega CellTiter-Glo Luminescent Cell Viability Assay Kit (Promega-G7571).
(6) 80 μl of the CellTiter-Glo working solution was added to each well. The cell plate was covered with aluminum foil to protect it from light.
The culture plate was shaken on an orbital shaker for 2 minutes to induce cell lysis.
The culture plate was allowed to stand at room temperature for 10 minutes to stabilize a luminescent signal.
For data set [9], the system named is human leukemia xenografts (HL60). Briefly: Experiment 2: suppression of leukemia (HL60) xenografts with doxorubicin and 3′-deoxyadenosine. It is filed as in vivo, BALB/c nude mouse. The procedure: as §1, §2
Data set [10] concerns human hepatoma xenografts (Huh-7). Briefly: Experiment 5: suppression of hepatoma (Huh-7) xenografts with doxorubicin and 3′-deoxyadenosine. In kind it is in vivo, BALB/c nude mouse. The settings on record: doxorubicin 2.5 mg/kg, 37th day.
Source text: as §3
On the 23rd day after inoculation of the mice with human hepatoma Huh-7 cells, xenografted tumor models were successful, and then treated with drugs.

Several values for one entry are separate records, joined by “and”; a condition that tells them apart may be missing. Equal entries are not always repeated.

With `N.N.[Cl][Pt][Cl]` [cisplatin], the mice died entry in data set [1] (cisplatin 5 mg/kg/day, 7th day, 7 mice per group) is given as “two nude mice died”; in data set [1] (cisplatin 5 mg/kg/day, 10th day, 7 mice per group), 4. The “mice died (total)” value in data set [1] (cisplatin 5 mg/kg/day, reduced to 2.5 mg/kg on the 15th day, 18th day, 7 mice per group) is 5 and 5/7. Also, the “inhibitory effect on tumor growth” value in data set [1] (high-dosage cisplatin (5 mg/kg)) is recorded as “good inhibitory effect on tumor growth”.
Take `CCCCCOC(=O)Nc1nc(=O)n([C@@H]2O[C@H](C)[C@@H](O)[C@H]2O)cc1F` [capecitabine]: the experimental animals died in data set [2] (11th day of the experiment, 7 mice per group) is recorded as 5. The tumor inhibition rate in data set [2] (11th day, vs normal saline group) worked out at 86.1%. Also, the inhibition rate in [3] is recorded as 57.8%; in data set [4] it was 80.1%.
The compound `O=c1[nH]cc(F)c(=O)[nH]1` [5-fluorouracil] showed an inhibition rate in [5] of 67.5%.
For `Nc1ncnc2c1ncn2[C@@H]1O[C@H](CO)C[C@H]1O` [3′-deoxyadenosine], the IC50 amounted to 850 nM in data set [6] and 1350 nM in data set [8]. Further, in data set [7], the inhibition of proliferation entry is listed as “could inhibit the proliferation”.
As to `CC(=O)O[C@H]1C(=O)[C@@]2(C)[C@H]([C@H](OC(=O)c3ccccc3)[C@]3(O)C[C@H](OC(=O)[C@H](O)[C@@H](NC(=O)c4ccccc4)c4ccccc4)C(C)=C1C3(C)C)[C@]1(OC(C)=O)CO[C@@H]1C[C@@H]2O` [paclitaxel], the IC50 in [6] was found to be 742 nM. This lies in the sub-micromolar range.
Consider `COc1cccc2c1C(=O)c1c(O)c3c(c(O)c1C2=O)C[C@@](O)(C(=O)CO)C[C@@H]3O[C@H]1C[C@H](N)[C@H](O)[C@H](C)O1` [doxorubicin], for which the IC50 in data set [6] came to 510 nM; in [8] it was 1200 nM. Moreover, the tumor-growth inhibition rate was 21.4% in data set [9] (doxorubicin 60 mg/kg/week (20 mg/kg each time, 3 times/week), 14th day) and 25.7% in [10]. For the same compound, the experimental animals died entry in data set [9] (doxorubicin 60 mg/kg/week, 14th day of the experiment, 7 mice per group) is “one experimental animal in this group died”.

In general, IC50 refers to the point on the concentration scale where inhibition reaches its midpoint. Lower therefore signals higher potency.

For the origin of these results see patent US11179349B2, “Use of tumor gene methylation regulator and anti-tumor drugs” (priority 2016, dated 2021).
